Test results: patent US20230348564A1, “ANTI-CANCER PROTEINS” (UNICHEM LABORATORIES LTD, priority 2020, published 2023)

How the values were obtained:
Notch-1 = assay: biomarker levels in IOMM-Lee by ELISA; assay type: cell-based, Human; details: 1 μM
Text: Effect of SEQ ID No 2 on the expression of following 7 biomarkers were estimated in Human Meningioma cell line (IOMM-Lee) using multiplex analysis: TNF-alpha, VEGF, VEGFR2, HGF, HGFR/c-MET, PDGF-BB, and Contactin-1. Levels of another marker, Notch-1 were also estimated by ELISA in the same cell line. These 8 biomarkers play very crucial role in the pathogenesis and progression of Brain Tumor. […] Supernatants were collected and the levels of these 8 markers were investigated.

Glioma (C6) = assay: cytotoxicity in Brain Tumor Cell lines by MTT assay; assay type: cell-based, Rat; details: 0.1 Mm-100 μM, 72 h
Procedure: The SEQ ID NO. […] Untreated cells were used as control. […] Cells were incubated for 3 h at 37° C.

Meningioma (IOMM-Lee) = assay: as above; details: 0.1 Mm-100 μM, 72 h
MDA-MB-231 = assay: JC-1 assay, mitochondrial membrane depolarization; assay type: cell-based, Human; details: 16h
Procedure: (§1) To evaluate the in vitro apoptotic effect of recombinant lectin having the amino acid sequence of SEQ ID NO.2 in MDA-MB-231 (breast cancer) and PANG-1 (pancreatic cancer) cell line by JC-1 assay, an increase in mitochondrial membrane depolarization was used as a marker of apoptosis. […] 2 using JC-1 dye based method. […] The cell lines were grown in Dulbecco's Modified Eagle Medium (DMEM)+10% heat inactivated FBS at 37° C. (95% humidity and 5% CO2). […] Recombinant lectin having the amino acid sequence of SEQ ID NO. 2 was diluted in serum free medium. Doxorubicin was used as positive control and stock solution was prepared in dimethyl sulfoxide (DMSO). […] The cells were then incubated overnight under growth conditions to allow the cell recovery and exponential growth. Cells were treated with the recombinant lectin of SEQ ID NO. […] Following respective treatments the cells in the above plate were incubated for 16h in CO2 incubator at 37° C., 5% CO2 and 95% humidity.
(§2) After 16h of incubation, the supernatants were discarded and 100 μL of JC1-dye solution (prepared by diluting 1 mM DMSO stock in to 10 μM in 1×PBS) was added to each well. The cells were then incubated with the dye in CO2 incubator at 37° C. for 15 min. After 15 min of incubation, the supernatant was removed and the cells were washed twice with 1×PBS and then 100 μL of 1×PBS was added to each well. Red fluorescence (excitation 550 nm, emission 600 nm) and green fluorescence (excitation 485 nm, emission 535 nm) were measured using Biotek Synergy FIT plate reader. The mitochondrial membrane potential […] was calculated as the ratio of intensity of red fluorescence to intensity of green fluorescence described as follows:
(§3) ΔΨM=Intensity of red fluorescence/Intensity of green fluorescence
(§4) The percentage decrease of Red fluorescence/Green fluorescence corresponding to each treatment was calculated using the following formula:
(§5) Where X=Δψm corresponding to treated cells R=ΔΨM corresponding to control wells.

PANC-1 = assay: JC-1 assay, mitochondrial membrane depolarization; assay type: cell-based, Human; details: 16h
Procedure: as §1, §2, §3, §4, §5

Astrocytoma (U87MG) = assay: cytotoxicity in Brain Tumor Cell lines by MTT assay; details: 0.1 Mm-100 μM, 72 h
Glioblastoma (U251MG) = assay: as above; details: 0.1 Mm-100 μM, 72 h
[1] = system: MDA-MB-453 (Human breast metastatic carcinoma); assay: MTT cytotoxicity assay; details: SEQ ID NO. 2 80 μg/ml, doxorubicin 75 μM; 48h
Procedure: (§6) All the cancer cell lines were procured from National Centre for Cell Science, Pune (India). Cell lines were maintained under conditions as mentioned in Table 23. The cell lines were sub-cultured by trypsinization followed by splitting the cell suspension into fresh flasks and supplementing with fresh culture medium.
(§7) All the cell lines were grown in specified media at 37° C. with 95% Humidity and 5% CO2.
(§8) The cells were trypsinized, counted by Trypan blue method in Neuebauer's Chamber and plated in wells of flat bottom 96-well plate at the density corresponding to 10×10^3 cells/well/200 μL medium.
(§9) Following overnight incubation, the media in the plate was replenished with 180 μL/well and then the cells were treated with 20 μL of each test item at concentrations ranging from 2.5 μg/mL-80 μg/mL in triplicates, so that the total volume in each well is 200 μL.
(§10) The untreated cells served as negative control. The cells were incubated with the test items or positive control for a time period of 48h. Following incubation, the cell cytotoxicity was estimated using MTT assay. Absorbance was measured at 540 nm. The percentage cytotoxicity corresponding to each treatment was calculated using the formula:
(§11) % Cytotoxicity=(1−X/R)*100
(§12) Where X=absorbance of wells corresponding to treated cells R=absorbance of untreated cells (cells maintained in growth medium only)
(§13) IC50 value was calculated using Graph-Pad Prism version 4.01 software.

[2] = system: MCF-7 (Human breast adenocarcinoma); assay: MTT cytotoxicity assay; details: SEQ ID NO. 2 80 μg/ml, doxorubicin 75 μM; 48h
Procedure: as §6, §7, §8, §9, §10, §11, §12, §13

[3] = system: PANC-1 (Human pancreatic epitheloid carcinoma); assay: MTT cytotoxicity assay; details: SEQ ID NO. 2 80 μg/ml, doxorubicin 75 μM; 48h
Procedure: as §6, §7, §8, §9, §10, §11, §12, §13

[4] = system: MIA PaCa-2 (Human pancreatic carcinoma); assay: MTT cytotoxicity assay; details: SEQ ID NO. 2 80 μg/ml, doxorubicin 75 μM; 48h
Procedure: as §6, §7, §8, §9, §10, §11, §12, §13

[5] = system: T24 (Human Bladder Cancer); assay: MTT cytotoxicity assay; details: SEQ ID NO. 2 80 μg/ml, doxorubicin 75 μM; 48h
Procedure: as §6, §7, §8, §9, §10, §11, §12, §13

[6] = system: T-47D (Human mammary gland ductal carcinoma); assay: MTT cytotoxicity assay; details: SEQ ID NO. 2 80 μg/ml, doxorubicin 75 μM; 48h
Procedure: as §6, §7, §8, §9, §10, §11, §12, §13

[7] = system: MDA-MB-231 (Human breast adenocarcinoma); assay: MTT cytotoxicity assay; details: SEQ ID NO. 2 80 μg/ml, doxorubicin 75 μM; 48h
Procedure: as §6, §7, §8, §9, §10, §11, §12, §13

[8] = system: PBMCs (Peripheral blood mononuclear cells); assay: MTT cytotoxicity assay; details: SEQ ID NO. 2 80 μg/ml, doxorubicin 75 μM; 48h
Procedure: as §6, §7, §8, §9, §10, §11, §12, §13

## COc1cccc2c1C(=O)c1c(O)c3c(c(O)c1C2=O)C[C@@](O)(C(=O)CO)C[C@@H]3O[C@H]1C[C@H](N)[C@H](O)[C@H](C)O1 [Doxorubicin, reference compound]
Notch-1
  Percentage inhibition on levels of Notch-1: 8%
Glioma (C6)
  % of cytotoxicity: 57.8%-86.3%
Meningioma (IOMM-Lee)
  % of cytotoxicity: 46.6%-54.5%
MDA-MB-231; 0.1 μM
  Average Green fluorescence: 473.0
  Average Red fluorescence: 465.3
  Percentage decrease in MMP (%): 58.8%
MDA-MB-231; 1 μM
  Average Green fluorescence: 345.5
  Average Red fluorescence: 343.3
  Percentage decrease in MMP (%): 58.3%
MDA-MB-231; 10 μM
  Average Green fluorescence: 534.0
  Average Red fluorescence: 580.7
  Percentage decrease in MMP (%): 54.4%
MDA-MB-231; 25 μM
  Average Green fluorescence: 336.3
  Average Red fluorescence: 376.7
  Percentage decrease in MMP (%): 53.0%
MDA-MB-231; 50 μM
  Average Green fluorescence: 318.0
  Average Red fluorescence: 663.7
  Percentage decrease in MMP (%): 12.5%
PANC-1; 0.1 μM
  Average Green fluorescence: 258.5
  Average Red fluorescence: 653.7
  Percentage decrease in MMP (%): −21.0%
PANC-1; 1 μM
  Average Green fluorescence: 282.3
  Average Red fluorescence: 555.3
  Percentage decrease in MMP (%): 5.9%
PANC-1; 10 μM
  Average Green fluorescence: 208.3
  Average Red fluorescence: 350.0
  Percentage decrease in MMP (%): 19.6%
PANC-1; 25 μM
  Average Green fluorescence: 186.3
  Average Red fluorescence: 283.0
  Percentage decrease in MMP (%): 27.3%
PANC-1; 50 μM
  Average Green fluorescence: 161.7
  Average Red fluorescence: 192.5
  Percentage decrease in MMP (%): 43.0%
Astrocytoma (U87MG)
  % of cytotoxicity: 46.6%-72.4%
Glioblastoma (U251MG)
  % of cytotoxicity: 11.2%-78.6%
[1]
  Cytotoxicity at highest concentration tested: 71.4%
[2]
  Cytotoxicity at highest concentration tested: 64.9%
[3]
  Cytotoxicity at highest concentration tested: 65.1%
[4]
  Cytotoxicity at highest concentration tested: 63.9%
[5]
  Cytotoxicity at highest concentration tested: 54.4%
[6]
  Cytotoxicity at highest concentration tested: 51.1%
[7]
  Cytotoxicity at highest concentration tested: 50.2%
[8]
  Cytotoxicity at highest concentration tested: 32.0%
